Results as given in the NIST ThermoML archive (doi:10.1016/j.tca.2016.03.013).
Several values for one entry are separate records, joined by “and”; a condition that tells them apart may be missing. Identical values can stand only once. ± gives the expanded uncertainty stated by the source.

Tests used:
[1] = for vapor or sublimation pressure: Liquid, Rate of evaporation; for Normal melting temperature: Crystal, DTA
[2] = Molar enthalpy of transition or fusion; details: Crystal; DSC
[3] = molar heat capacity at constant pressure; details: 101.33 kPa, Small sample (50 mg) DSC

c1ccc2c(c1)ccc1ccccc12 [phenanthrene]
[1]
Details	vapor or sublimation pressure [kPa]
384 K	0.0567 ± 0.021
388 K	0.0795 ± 0.026
392 K	0.097 ± 0.031
396 K	0.1144 ± 0.037
400 K	0.146 ± 0.048
404 K	0.1785 ± 0.057
408 K	0.2069 ± 0.066
412 K	0.2439 ± 0.078
416 K	0.2926 ± 0.094
420 K	0.3468 ± 0.11

c1ccc2cc3ccccc3cc2c1 [anthracene]
[1]
Details	vapor or sublimation pressure [kPa]
494 K	5.794 ± 1.8
496 K	6.242 ± 2
498 K	6.713 ± 2.1
500 K	7.174 ± 2.3
502 K	7.662 ± 2.4
504 K	8.173 ± 2.6
506 K	8.694 ± 2.7
508 K	9.227 ± 2.9
510 K	9.775 ± 3.1
512 K	10.31 ± 3.2

c1ccc2c(c1)OCCOCCOCCOCCOc1ccccc1OCCOCCOCCOCCO2 [dibenzo-30-crown-10]
[1]
Details	vapor or sublimation pressure
545 K	0.0347 ± 0.011 kPa and 0.0354 ± 0.011 kPa
550 K	0.0405 ± 0.013 kPa and 0.0424 ± 0.014 kPa and 0.0433 ± 0.014 kPa
555 K	0.0515 ± 0.017 kPa and 0.0526 ± 0.017 kPa and 0.0536 ± 0.017 kPa
560 K	0.0655 ± 0.021 kPa and 0.0614 ± 0.019 kPa and 0.0649 ± 0.021 kPa
565 K	0.0772 ± 0.025 kPa and 0.0781 ± 0.025 kPa and 0.0764 ± 0.024 kPa
570 K	0.0969 ± 0.031 kPa and 0.0924 ± 0.03 kPa and 0.0946 ± 0.03 kPa
575 K	0.116 ± 0.037 kPa and 0.118 ± 0.038 kPa and 0.1176 ± 0.038 kPa
580 K	0.1429 ± 0.046 kPa and 0.1455 ± 0.047 kPa and 0.1444 ± 0.047 kPa
585 K	0.1768 ± 0.057 kPa and 0.1779 ± 0.057 kPa and 0.188 ± 0.06 kPa
590 K	0.2184 ± 0.069 kPa and 0.2143 ± 0.068 kPa and 0.2192 ± 0.069 kPa
595 K	0.2675 ± 0.085 kPa and 0.2625 ± 0.083 kPa and 0.2682 ± 0.085 kPa

Details	Molar enthalpy of transition or fusion [kcal/mol]	Normal melting temperature [°C]
[1]	–	104.5 ± 0.39
[2]	20.7 ± 0.43	–

[3]
Details	molar heat capacity at constant pressure [J/K/mol]
295 K, Crystal	668.8 ± 41
298.15 K, Crystal	680.4 ± 42
300 K, Crystal	686.9 ± 42
305 K, Crystal	700.3 ± 43
310 K, Crystal	715.3 ± 44
315 K, Crystal	728.4 ± 45
320 K, Crystal	741.6 ± 46
325 K, Crystal	755.5 ± 47
330 K, Crystal	769.9 ± 48
335 K, Crystal	783.3 ± 48
340 K, Crystal	797 ± 49
345 K, Crystal	811.5 ± 50
350 K, Crystal	826.4 ± 51
355 K, Crystal	844.9 ± 52
360 K, Crystal	868.2 ± 54
390 K, Liquid	1144.6 ± 68
395 K, Liquid	1148.9 ± 69
400 K, Liquid	1153 ± 69
405 K, Liquid	1159.5 ± 69
410 K, Liquid	1164.6 ± 70
415 K, Liquid	1169.3 ± 70
420 K, Liquid	1179.2 ± 70
425 K, Liquid	1186.2 ± 71
430 K, Liquid	1187.9 ± 71
435 K, Liquid	1195 ± 71
440 K, Liquid	1196.6 ± 71
445 K, Liquid	1199.2 ± 72
450 K, Liquid	1201.2 ± 72
455 K, Liquid	1200.9 ± 72
460 K, Liquid	1201.6 ± 72
465 K, Liquid	1202 ± 72
470 K, Liquid	1201.9 ± 72

c1ccc2c(c1)OCCOCCOc1ccccc1OCCOCCO2 [dibenzo[b,k][1,4,7,10,13,16]hexaoxacyclooctadecane]
[1]
Details	vapor or sublimation pressure
545 K	0.5186 ± 0.17 kPa and 0.4924 ± 0.16 kPa and 0.5452 ± 0.17 kPa
550 K	0.6057 ± 0.19 kPa and 0.6363 ± 0.2 kPa and 0.6637 ± 0.21 kPa
555 K	0.7424 ± 0.24 kPa and 0.8052 ± 0.26 kPa and 0.7755 ± 0.25 kPa
560 K	0.9045 ± 0.29 kPa and 0.9751 ± 0.31 kPa and 0.9424 ± 0.3 kPa
565 K	1.095 ± 0.35 kPa and 1.169 ± 0.37 kPa and 1.137 ± 0.36 kPa
570 K	1.323 ± 0.42 kPa and 1.398 ± 0.44 kPa and 1.369 ± 0.43 kPa
575 K	1.589 ± 0.5 kPa and 1.663 ± 0.53 kPa and 1.638 ± 0.52 kPa
580 K	1.903 ± 0.6 kPa and 1.969 ± 0.62 kPa and 1.948 ± 0.62 kPa
585 K	2.258 ± 0.71 kPa and 2.321 ± 0.73 kPa and 2.316 ± 0.73 kPa
590 K	2.673 ± 0.84 kPa and 2.72 ± 0.86 kPa and 2.717 ± 0.85 kPa
595 K	3.164 ± 0.99 kPa and 3.142 ± 0.98 kPa and 3.16 ± 0.99 kPa

Details	Molar enthalpy of transition or fusion [kcal/mol]	Normal melting temperature [°C]
[1]	–	162.50 ± 0.39
[2]	13.4 ± 0.287	–

[3]
Details	molar heat capacity at constant pressure [J/K/mol]
295 K, Crystal	434.6 ± 44
298.15 K, Crystal	439.7 ± 44
300 K, Crystal	443.6 ± 45
305 K, Crystal	449 ± 45
310 K, Crystal	457.8 ± 46
315 K, Crystal	462.9 ± 47
320 K, Crystal	468.4 ± 47
325 K, Crystal	474.6 ± 48
330 K, Crystal	481.5 ± 49
335 K, Crystal	487.5 ± 49
340 K, Crystal	494.7 ± 50
345 K, Crystal	500.5 ± 50
350 K, Crystal	506.2 ± 51
355 K, Crystal	513.3 ± 52
360 K, Crystal	520.1 ± 52
365 K, Crystal	527 ± 53
370 K, Crystal	533.2 ± 54
375 K, Crystal	540.2 ± 55
380 K, Crystal	547.6 ± 55
385 K, Crystal	555.2 ± 56
390 K, Crystal	563.2 ± 57
395 K, Crystal	571.3 ± 58
400 K, Crystal	580.1 ± 59
405 K, Crystal	588.7 ± 60
410 K, Crystal	596.8 ± 60
415 K, Crystal	604.8 ± 61
445 K, Liquid	755.4 ± 60
450 K, Liquid	761 ± 60
455 K, Liquid	768.7 ± 61
460 K, Liquid	772.5 ± 61
465 K, Liquid	780.2 ± 62
470 K, Liquid	787 ± 62
475 K, Liquid	792 ± 63
480 K, Liquid	799.7 ± 63
485 K, Liquid	806 ± 64
490 K, Liquid	812.6 ± 64
